The text below walks through data of PMC9332470, “Production and Selection of Antibody–Antigen Pairs for the Development of Immunoenzyme Assay and Lateral Flow Immunoassay Methods for Carbofuran and Its Analogues” (Biosensors, 2022).

≈ marks a conversion by molar mass, not a printed value. Where only a bound is given, the exact number is not on record here.

In assay [1] the test system is mAb 7F9. Briefly: ELISA reactivity of hybridoma supernatant, cell line 7F9. Conditions: cell line 7F9 supernatant, 50 ng/mL pesticide. The format is binding, BALB/c mice. The procedure: The desired antibodies with the highest affinity were screened by icELISA with carbofuran as a competitive compound, and hybridoma cells were cloned by the limited dilution method. Then, the selected hybridoma cells were injected into mice for ascites production. Finally, the mAbs were purified by (NH4)2SO4 with saturation of 50% and further purified by an SPA column.
Microplates were coated with coating antigens. Different concentrations of the standard (50 µL) and the mAb (50 µL) were added to each well, and the plates were incubated for 20 min at 37 °C. The plates were washed with PBS (0.01 M, containing 0.05% (v/v) Triton X-100), 100 μL of goat anti-mouse IgG-HRP conjugate solution was added to each well, and the plates were incubated for 20 min at 37 °C. After the plates were washed with PBS (0.01 M, containing 0.05% Triton X-100, v/v), 100 µL of TMB single-component substrate solution was added to each well, followed by incubation at 37 °C for 10 min. Finally, the reaction was terminated, and the absorbance at 450 nm was measured by a microplate reader.
(§1) The inhibition ratio (I%) was calculated as (B0-B)/B0 × 100%. IC50 is the concentration of the carbofuran at an I% of 50%, and the limit of detection (LOD) was determined as the concentration showing 10% of inhibition.
Then, the reactivity of the supernatant of the six cell lines to 50 ng/mL carbofuran, benfuracarb and carbosulfan was assessed by ELISA, and the results are shown in Table 1. […] Because 13C8 had the highest reactivity with carbofuran, benfuracarb and carbosulfan among the six cell lines, it was injected into mice for ascites production, and the mAbs were purified by a protein A column for further experiments.
For orientation: An ELISA detects its analyte on a solid surface through an enzyme-linked reagent.

The test system of assay [2] is specific antibody against carbofuran. Conditions: double-label time-resolved fluorescent strip; cited from earlier work.
Assay [3] concerns mAb with the immunogen 3-succinyl-carbofuran-KLH. Conditions: cited from earlier work.
Assay [4] relates to mAb with the immunogen BFNH-lactoferrin. Conditions: heterologous coating antigen BFOA-BSA; cited from earlier work.
The subject of assay [5] is mAb 13C8. Briefly: quantum dot-based LFIA (QD-LFIA) with mAb 13C8. Format: binding, BALB/c mice. The procedure: One milliliter of QDs was added to 9 mL of MES (0.054 M at pH 6.0) and centrifuged at 10,956× g for 20 min. Then, the precipitate was resuspended in 10 mL of MES (0.05 M at pH 6.0). After dispersion by ultrasonication for 2 min, EDC (20 mg) and NHS (20 mg) were added, and the reaction mixture was incubated for 30 min, followed by centrifugation at 10,956× g for 20 min. The precipitate was resuspended in 10 mL of MES (0.05 M at pH 6.0). Then, 1 mg of the mAb dissolved in 10 mL MES (0.027 M at pH 8.0) was added to the QD mixture and shaken at 25 °C and 180 rpm for 90 min. After the reaction, 5 mL of MES (0.054 M at pH 6.0 containing 1.6% BSA, w/v) was added, and the mixture was shaken at 25 °C and 180 rpm for 40 min, followed by centrifugation at 10,956× g for 20 min. The precipitate was resuspended in 10 mL of PB (0.01 M at pH 6.0, containing 5% casein, 1% glucose, 1.5% alanine and 0.05% NaN3, w/v) and dispersed by ultrasonication for 2 min.
The conjugate pad (6 mm × 300 mm) was pretreated with PBS (containing 0.5% Triton X-100, 0.5% alanine and 0.05% NaN3, w/v). Then, 1 mL of the mAb–QD conjugate was sprayed onto the pretreated conjugate pad at a flow rate of 10 μL/cm, and the pad was dried at 37 °C for 2 h. Other applied protocols were similar to those mentioned above.
Taking the logarithm of the carbofuran concentration as the abscissa and (B/B0)% as the ordinate, the standard curves for ELISA and QD-LFIA were obtained based on the Morgan–Mercer–Flodin (MMF) model, which were fitted by CurveExpert 1.4.0 software (https://www.curveexpert.net, accessed on 15 July 2022). For the ELISA method, B and B0 are the absorbance of the sample well and blank well, respectively. For the QD-LFIA method, B and B0 are the T/C (fluorescence intensity of the test line/fluorescence intensity of the control line) of the sample and blank control, respectively.
as §1
The cross-reactivities (CRs) of benfuracarb, carbosulfan, 3-hydroxy-carbofuran, metolcarb, carbaryl, isoprocarb and aldicarb with carbofuran were assessed by ELISA and QD-LFIA. CR was calculated as CR (%) = [IC50 (carbofuran)/IC50 (analogues)] × 100%.
Then, to prepare QD-LFIA test strips, DDB-BSA (40 μg/mL), DDB-OVA (50 μg/mL), MDA-BSA (35 μg/mL) and MDA-OVA (30 μg/mL) were dispensed onto the NC membrane, and antibody 13C8 was conjugated to the QDs. Carbofuran standards (0, 0.05, 0.15, 0.45, 1.35 and 4.05 ng/mL) were detected to obtain a standard curve, and the IC50 was calculated. […] In LFIA, carbofuran in solution competed with the coating antigen on the NC membrane for antibody 13C8 conjugated to the QDs.
A standard curve was developed with the inhibition ratio (B/B0) versus the logarithm of the concentration of carbofuran.

In assay [6] the test system is mAb with the immunogen BFNB-KLH. Conditions: homologous coating antigen BFNB-OVA; cited from earlier work.
Assay [7] has as its system mAb with the immunogen BFNB-BSA. Conditions: heterologous coating antigen BFNH-OVA; cited from earlier work.

Take `CNC(=O)Oc1cccc2c1OC(C)(C)C2` [carbofuran]: the “Reactivity of mAb (I%)” value in assay [1] is reported as 76%. Further, the detection limit in assay [2] is reported as 0.76 ng/mL. In assay [3], the “CR(%) (ic-ELISA)” value is reported as 100.0%. Also, the “IC50 (ic-ELISA)” value in assay [3] is 0.76 ± 0.07 ng/mL (≈ 3.43 nM); in assay [6] it was 0.3 ng/mL (≈ 1.36 nM); in assay [7], 0.66 ng/mL (≈ 2.98 nM). Also, the “IC50 (ELISA)” value in assay [4] was 1.4 ng/mL (≈ 6.33 nM). Moreover, in assay [5] (CR = IC50(carbofuran)/IC50(analogue) x 100%, QD-LFIA with mAb 13C8), the “CR (%) (QD-LFIA)” value came to 100.0%. Further, the “IC50 (QD-LFIA)” value was over 1000 ng/mL in assay [5] (antibody 13C8, antigen DDB-BSA (40 μg/mL) on NC membrane); over 1000 ng/mL in assay [5] (antibody 13C8, antigen DDB-OVA (50 μg/mL) on NC membrane); 0.68 ± 0.03 ng/mL (≈ 3.07 nM) in assay [5] (antibody 13C8, antigen MDA-BSA (35 μg/mL) on NC membrane); 0.66 ± 0.03 ng/mL (≈ 2.98 nM) in assay [5] (antibody 13C8, antigen MDA-OVA (30 μg/mL) on NC membrane); 0.67 ± 0.08 ng/mL (≈ 3.03 nM) in assay [5] (optimized QD-LFIA, mAb 13C8-QD, T line antigen 30 μg/mL, given as MDA-BSA and MDA-OVA). Further, in assay [5] (concentration showing 10% of inhibition), the “detection limit (QD-LFIA)” value came to 0.04 ng/mL. In addition, in assay [5] (homologous coating antigens DDB-BSA and DDB-OVA), the “reaction of QD-LFIA test strips” value is listed as “almost no reaction”. Besides, the “working range (QD-LFIA)” value in assay [5] (optimized QD-LFIA) is 0.04 to 4.21 ng/mL. In addition, the “IC50 of QD-LFIA with heterologous coating antigens” value in assay [5] (span over MDA-BSA and MDA-OVA) is recorded as 0.66–0.68 ng/mL.
